Entries after “also recorded” stand apart in the source; their conditions may differ. Like-named read-outs stand apart in the source and are kept apart here.
Key:
interferon (IFN) [1] = conditions: mice; cited from earlier work
anagen / catagen = conditions: C57BL/6 mouse model; cited from earlier work
[2] = test system: hair shedding / hair growth of the scalp in patients; experiment: Small-scale human clinical study of 0.01% AS101 topical spray, TrichoScan hair density analysis; assay type: in vivo
From the text: Two small-scale human clinical studies were each conducted over a 6 month period to evaluate the potential use of an 0.01% AS101 spray formulation for the prevention of hair shedding and/or enhancing hair growth. Patients received no other alopecia treatment for at least 3 months prior to commencement of the study.
The sample group consisted of 36 patients, of which 6 withdrew due to non-compliance. Data from a further 14 patients was considered to be unsuitable for analysis with the TrichoScan system, for example, due to untraceable tattoos. 16 patients were therefore available for evaluation.
During an initial visit, a designated area of the scalp (about 0.7 cm^2) was shaved. Three days later, the area was tattooed using red ink, and photographed (Nikon digital camera). Patients were provided with a topical spray composition comprising 0.01% AS101 in 20% propylene glycol, 20% water and 60% ethyl alcohol, and were instructed to apply about 2 ml of the composition on the designated area on a daily basis for the first week, and once a day, twice a week thereafter. Patients were examined upon enrollment, and then after about 2 months, after about 3 months, and after about 6 months. Hair density, terminal hair density, and vellus hair density were analyzed, using the DatInf^R Image DB image archiving system, and TichoScan software.
Results were calculated in terms of hair density, terminal hair density, and vellus hair density.
FIGS. 2a and 2b present the data obtained for the hair density, terminal hair density and vellus hair density, each per cm^2, with two representative individuals of the study. The above parameters were measured at commencement of the study, after about 1 month, after about 3 months, and after about 6 months. All results were obtained using the DatInf^R Image DB image archiving system, and TichoScan software.

[3] = test system: bone marrow toxicity and alopecia induced by chemotherapy; conditions: cancer patients; cited from earlier work
KGF expression = conditions: cultured fibroblasts; via Cys118 of p21ras, ras signalling pathway; cited from earlier work
interferon (IFN) [4] = conditions: humans; cited from earlier work
hair growth [5] = conditions: humans; cited from earlier work
hair growth [6] = conditions: nude mice, normal mice; in nude mice systemic, oral or topical; cited from earlier work
IL-1, IL-6, TNF-α, IL-10 = conditions: cited from earlier work

Structure (SMILES): Cl[TeH]1(Cl)(Cl)OCCO1 [AS101, ammonium trichloro(dioxyethylene-O,O′)tellurate]
- interferon (IFN) induction (interferon (IFN) [1]): potent activator; also recorded: potent inducer
- anagen induction and retardation of spontaneous catagen (anagen / catagen): induce anagen and retard spontaneous catagen
- side-effects ([2]; 0.01% AS101 topical spray, 6 months): No side-effects were observed
- patients responding partially (increase observed during part of the treatment period) ([2]; 0.01% AS101 topical spray, 6 months, 16 evaluable patients): 18.75%
- patients who completed the study responding with a consistent increase in hair density ([2]; 0.01% AS101 topical spray, about 2 ml, daily first week then twice a week, 6 months, 16 evaluable patients): 37.5%
- hair density, terminal hair density and vellus hair density per cm^2 ([2]; after about 1 month, representative person and person (FIGS. 2a, 2b)): significant increase
- protection from bone marrow toxicity and alopecia induced by chemotherapy [3]: ability to protect
- KGF expression (KGF expression): upregulates KGF expression
- interferon (IFN) induction (interferon (IFN) [4]): potent activator; also recorded: potent inducer
- induction of hair growth (hair growth [5]): induce hair growth
- induction of hair growth (hair growth [6]): induce hair growth
- IL-10 inhibition (IL-1, IL-6, TNF-α, IL-10; m-RNA level): inhibit IL-10 at the m-RNA level
- secretion of cytokines such as IL-1, IL-6 and TNF-α (IL-1, IL-6, TNF-α, IL-10; macrophages are one main target): induce the secretion

Source: US20090269418A1, “Compositions and Methods for Inducing Hair Growth” (BioMas Ltd, priority 2004, published 2009)
